Measured values as given in PMC9851200, “Multiparameter phenotypic screening for endogenous TFEB and TFE3 translocation identifies novel chemical series modulating lysosome function” (Autophagy, 2022).

What was measured:
TFEB or TFE3 = assay: EC50 line in the head of Table S5 (cellular activity of the analogs, assay not given); assay type: cell-based; settings: assay not named, unit printed only in the first two cells
Experimental: Figure S5. Activity of quinazoline analogs. […] Compounds were screen at 24-h treatment time up to 5 µM concentration. Data for each compound is represented on single graphs with their structures shown. n=1 for all above assays, mean±s.d. (B) Representative western blot of TFEB levels following treatment of compounds followed by fractionation into cytoplasmic (C) and nuclear (N) compartments. Successful fractionation represented by enrichment of GAPDH in the cytoplasmic fraction and LMNA (lamin A/C) in the nuclear compartment. (C) The levels of nuclear/cytoplasmic TFEB were quantified and presented as a ratio. A paired one-way ANOVA with a Holm-Šídák's multiple comparisons test was performed relative to DMSO for comparison between each compound treatments (n=3).

TGFBR2 = TGFBR2 (Homo sapiens, UniProt P37173); assay: KINOMEscan TGFBR2; assay type: binding; settings: NEW KINOMEscan
MTOR = MTOR (Homo sapiens, UniProt P42345); assay: KINOMEscan MTOR; assay type: binding; settings: NEW KINOMEscan
[1] = target: T1, kinases (KINOMEscan panel) (Homo sapiens, UniProt O43318); assay type: binding; settings: NEW KINOMEscan
T1 sequence (O43318 1-606): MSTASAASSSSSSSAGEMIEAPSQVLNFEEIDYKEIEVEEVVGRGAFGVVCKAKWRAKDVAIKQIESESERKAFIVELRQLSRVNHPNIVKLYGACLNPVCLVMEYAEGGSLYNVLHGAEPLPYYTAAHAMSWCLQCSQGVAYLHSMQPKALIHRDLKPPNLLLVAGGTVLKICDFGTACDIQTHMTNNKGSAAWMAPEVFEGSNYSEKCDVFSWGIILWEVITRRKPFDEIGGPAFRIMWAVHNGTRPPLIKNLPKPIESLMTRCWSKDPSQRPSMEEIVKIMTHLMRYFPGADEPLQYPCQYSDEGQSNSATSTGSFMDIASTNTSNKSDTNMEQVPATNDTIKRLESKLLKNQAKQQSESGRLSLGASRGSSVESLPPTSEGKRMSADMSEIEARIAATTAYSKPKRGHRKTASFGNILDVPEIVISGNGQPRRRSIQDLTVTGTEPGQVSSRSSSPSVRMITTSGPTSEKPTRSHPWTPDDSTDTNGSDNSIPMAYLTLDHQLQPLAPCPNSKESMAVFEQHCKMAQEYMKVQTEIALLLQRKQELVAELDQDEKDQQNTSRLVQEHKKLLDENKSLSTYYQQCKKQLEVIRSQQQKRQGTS

[2] = target: kinases (KINOMEscan panel) (Homo sapiens, UniProt O96013); assay type: binding; settings: PAK4; NEW KINOMEscan
[3] = target: kinases (KINOMEscan panel) (Homo sapiens, UniProt P10721, T670I/V559D); assay type: binding; settings: NEW KINOMEscan
[4] = target: kinases (KINOMEscan panel) (Homo sapiens, UniProt P35590); assay type: binding; settings: TIE1; NEW KINOMEscan
[5] = target: T2, kinases (KINOMEscan panel) (Homo sapiens, UniProt Q99759); assay type: binding; settings: MAP3K3; NEW KINOMEscan
T2 sequence (Q99759 1-626): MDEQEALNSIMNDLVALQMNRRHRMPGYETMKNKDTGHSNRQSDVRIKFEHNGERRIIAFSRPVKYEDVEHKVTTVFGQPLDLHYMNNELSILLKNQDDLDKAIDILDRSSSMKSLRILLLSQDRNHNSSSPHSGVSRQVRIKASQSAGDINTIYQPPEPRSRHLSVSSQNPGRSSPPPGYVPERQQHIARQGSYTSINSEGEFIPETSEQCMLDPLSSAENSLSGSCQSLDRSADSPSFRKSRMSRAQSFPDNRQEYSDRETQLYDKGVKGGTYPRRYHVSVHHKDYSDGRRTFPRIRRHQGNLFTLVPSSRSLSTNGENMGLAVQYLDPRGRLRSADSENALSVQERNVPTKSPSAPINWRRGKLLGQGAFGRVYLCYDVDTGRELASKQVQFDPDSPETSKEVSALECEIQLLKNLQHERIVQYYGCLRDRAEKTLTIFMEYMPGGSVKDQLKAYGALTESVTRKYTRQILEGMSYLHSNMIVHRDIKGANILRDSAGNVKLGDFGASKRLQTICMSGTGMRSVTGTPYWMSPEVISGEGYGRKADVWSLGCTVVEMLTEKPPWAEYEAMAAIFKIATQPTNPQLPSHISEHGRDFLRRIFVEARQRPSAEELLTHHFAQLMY

[6] = target: T3, kinases (KINOMEscan panel) (Homo sapiens, UniProt Q9H2K8); assay type: binding; settings: kinase TAOK3; NEW KINOMEscan
T3 sequence (Q9H2K8 1-898): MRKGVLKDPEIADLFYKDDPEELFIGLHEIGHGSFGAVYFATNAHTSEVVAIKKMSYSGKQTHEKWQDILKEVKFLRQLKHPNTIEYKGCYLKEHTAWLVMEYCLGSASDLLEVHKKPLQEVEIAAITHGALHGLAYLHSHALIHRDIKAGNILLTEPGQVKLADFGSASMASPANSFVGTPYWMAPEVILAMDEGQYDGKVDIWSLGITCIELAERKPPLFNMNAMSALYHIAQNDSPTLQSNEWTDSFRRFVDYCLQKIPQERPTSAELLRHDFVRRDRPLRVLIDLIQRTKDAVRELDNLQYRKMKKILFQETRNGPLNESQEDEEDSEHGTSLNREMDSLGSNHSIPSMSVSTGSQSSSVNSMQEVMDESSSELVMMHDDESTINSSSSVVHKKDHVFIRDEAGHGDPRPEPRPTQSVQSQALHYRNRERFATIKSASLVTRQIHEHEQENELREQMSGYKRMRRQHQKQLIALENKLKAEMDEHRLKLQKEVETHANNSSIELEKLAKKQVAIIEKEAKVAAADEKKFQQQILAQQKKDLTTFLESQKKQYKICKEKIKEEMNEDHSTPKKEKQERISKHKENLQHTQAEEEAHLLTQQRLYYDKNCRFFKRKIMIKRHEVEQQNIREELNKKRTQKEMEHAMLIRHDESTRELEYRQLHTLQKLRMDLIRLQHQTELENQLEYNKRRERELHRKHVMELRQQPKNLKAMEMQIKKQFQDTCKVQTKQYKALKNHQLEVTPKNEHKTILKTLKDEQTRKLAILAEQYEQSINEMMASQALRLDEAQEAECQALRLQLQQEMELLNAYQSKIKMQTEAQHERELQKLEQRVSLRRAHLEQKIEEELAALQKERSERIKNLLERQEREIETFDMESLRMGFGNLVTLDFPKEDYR

[7] = target: kinases (KINOMEscan panel) (Plasmodium falciparum, UniProt P61075); assay type: binding; settings: PFPK5(P.falciparum); NEW KINOMEscan
kinases (KINOMEscan panel) (Plasmodium falciparum, UniProt P61075), sequence (P61075 whole entry): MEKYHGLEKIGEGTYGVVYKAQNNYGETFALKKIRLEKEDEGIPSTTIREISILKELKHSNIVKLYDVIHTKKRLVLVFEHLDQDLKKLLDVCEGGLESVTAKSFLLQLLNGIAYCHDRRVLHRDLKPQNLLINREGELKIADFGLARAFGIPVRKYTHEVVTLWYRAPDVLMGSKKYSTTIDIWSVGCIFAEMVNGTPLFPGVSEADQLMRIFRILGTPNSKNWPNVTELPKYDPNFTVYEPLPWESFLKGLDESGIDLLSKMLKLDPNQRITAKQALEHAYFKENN

TGFBR2, sequence (P37173 23-567): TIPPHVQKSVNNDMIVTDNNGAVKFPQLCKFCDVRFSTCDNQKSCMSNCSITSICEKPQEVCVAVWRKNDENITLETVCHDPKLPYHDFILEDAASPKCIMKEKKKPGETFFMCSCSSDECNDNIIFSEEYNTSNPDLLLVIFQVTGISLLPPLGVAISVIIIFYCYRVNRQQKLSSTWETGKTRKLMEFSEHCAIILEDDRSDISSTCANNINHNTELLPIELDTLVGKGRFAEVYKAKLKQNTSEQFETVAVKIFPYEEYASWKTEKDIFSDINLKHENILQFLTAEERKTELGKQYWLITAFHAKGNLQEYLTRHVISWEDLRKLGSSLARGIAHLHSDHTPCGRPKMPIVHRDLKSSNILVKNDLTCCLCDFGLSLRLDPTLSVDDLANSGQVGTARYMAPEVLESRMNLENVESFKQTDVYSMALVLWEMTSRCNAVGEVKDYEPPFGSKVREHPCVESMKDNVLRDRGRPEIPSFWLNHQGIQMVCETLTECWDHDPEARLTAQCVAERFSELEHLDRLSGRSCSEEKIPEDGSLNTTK
kinases (KINOMEscan panel) (Homo sapiens, UniProt P10721, T670I/V559D), sequence (P10721 26-976 V559D/T670I): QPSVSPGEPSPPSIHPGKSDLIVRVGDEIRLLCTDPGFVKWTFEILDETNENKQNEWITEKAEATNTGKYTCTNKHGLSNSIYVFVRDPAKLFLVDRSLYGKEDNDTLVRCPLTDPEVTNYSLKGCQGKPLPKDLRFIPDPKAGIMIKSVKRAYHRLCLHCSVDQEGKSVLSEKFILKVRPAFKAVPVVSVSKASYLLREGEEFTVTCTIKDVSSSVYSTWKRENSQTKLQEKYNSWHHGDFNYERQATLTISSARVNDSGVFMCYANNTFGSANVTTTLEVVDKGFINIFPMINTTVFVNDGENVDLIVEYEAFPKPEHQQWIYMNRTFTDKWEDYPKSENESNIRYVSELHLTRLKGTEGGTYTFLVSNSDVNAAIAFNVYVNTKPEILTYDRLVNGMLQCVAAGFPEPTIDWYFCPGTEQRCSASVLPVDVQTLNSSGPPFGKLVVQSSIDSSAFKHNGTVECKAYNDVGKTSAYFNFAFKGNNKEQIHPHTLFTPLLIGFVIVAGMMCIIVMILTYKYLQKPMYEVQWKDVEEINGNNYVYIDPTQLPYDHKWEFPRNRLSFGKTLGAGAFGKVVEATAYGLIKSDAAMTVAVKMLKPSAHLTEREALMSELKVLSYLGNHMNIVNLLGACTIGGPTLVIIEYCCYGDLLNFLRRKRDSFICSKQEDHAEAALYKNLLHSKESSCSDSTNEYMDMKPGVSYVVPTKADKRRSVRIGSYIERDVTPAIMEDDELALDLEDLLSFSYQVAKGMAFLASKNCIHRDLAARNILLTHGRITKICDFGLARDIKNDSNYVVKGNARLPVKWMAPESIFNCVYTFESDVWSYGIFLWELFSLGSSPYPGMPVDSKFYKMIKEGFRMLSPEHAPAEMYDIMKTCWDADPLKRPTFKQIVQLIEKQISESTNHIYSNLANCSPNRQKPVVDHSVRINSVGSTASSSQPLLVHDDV
kinases (KINOMEscan panel) (Homo sapiens, UniProt O96013), sequence (O96013 whole entry): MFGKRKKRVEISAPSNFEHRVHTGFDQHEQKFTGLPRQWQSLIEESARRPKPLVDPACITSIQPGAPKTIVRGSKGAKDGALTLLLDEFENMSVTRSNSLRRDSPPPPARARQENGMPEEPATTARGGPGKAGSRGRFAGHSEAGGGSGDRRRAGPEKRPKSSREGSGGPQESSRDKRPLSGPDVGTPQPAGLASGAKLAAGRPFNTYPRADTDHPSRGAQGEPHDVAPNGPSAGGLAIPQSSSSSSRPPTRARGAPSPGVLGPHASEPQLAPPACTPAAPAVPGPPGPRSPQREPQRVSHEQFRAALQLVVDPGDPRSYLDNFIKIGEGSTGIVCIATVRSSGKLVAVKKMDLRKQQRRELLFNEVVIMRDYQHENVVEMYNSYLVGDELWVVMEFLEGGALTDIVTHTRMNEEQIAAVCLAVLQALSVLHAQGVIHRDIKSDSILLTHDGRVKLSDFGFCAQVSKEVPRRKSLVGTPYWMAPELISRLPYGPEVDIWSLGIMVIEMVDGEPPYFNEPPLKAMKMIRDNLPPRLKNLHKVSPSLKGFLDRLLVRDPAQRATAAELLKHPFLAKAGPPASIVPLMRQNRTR
kinases (KINOMEscan panel) (Homo sapiens, UniProt P35590), sequence (P35590 22-1138): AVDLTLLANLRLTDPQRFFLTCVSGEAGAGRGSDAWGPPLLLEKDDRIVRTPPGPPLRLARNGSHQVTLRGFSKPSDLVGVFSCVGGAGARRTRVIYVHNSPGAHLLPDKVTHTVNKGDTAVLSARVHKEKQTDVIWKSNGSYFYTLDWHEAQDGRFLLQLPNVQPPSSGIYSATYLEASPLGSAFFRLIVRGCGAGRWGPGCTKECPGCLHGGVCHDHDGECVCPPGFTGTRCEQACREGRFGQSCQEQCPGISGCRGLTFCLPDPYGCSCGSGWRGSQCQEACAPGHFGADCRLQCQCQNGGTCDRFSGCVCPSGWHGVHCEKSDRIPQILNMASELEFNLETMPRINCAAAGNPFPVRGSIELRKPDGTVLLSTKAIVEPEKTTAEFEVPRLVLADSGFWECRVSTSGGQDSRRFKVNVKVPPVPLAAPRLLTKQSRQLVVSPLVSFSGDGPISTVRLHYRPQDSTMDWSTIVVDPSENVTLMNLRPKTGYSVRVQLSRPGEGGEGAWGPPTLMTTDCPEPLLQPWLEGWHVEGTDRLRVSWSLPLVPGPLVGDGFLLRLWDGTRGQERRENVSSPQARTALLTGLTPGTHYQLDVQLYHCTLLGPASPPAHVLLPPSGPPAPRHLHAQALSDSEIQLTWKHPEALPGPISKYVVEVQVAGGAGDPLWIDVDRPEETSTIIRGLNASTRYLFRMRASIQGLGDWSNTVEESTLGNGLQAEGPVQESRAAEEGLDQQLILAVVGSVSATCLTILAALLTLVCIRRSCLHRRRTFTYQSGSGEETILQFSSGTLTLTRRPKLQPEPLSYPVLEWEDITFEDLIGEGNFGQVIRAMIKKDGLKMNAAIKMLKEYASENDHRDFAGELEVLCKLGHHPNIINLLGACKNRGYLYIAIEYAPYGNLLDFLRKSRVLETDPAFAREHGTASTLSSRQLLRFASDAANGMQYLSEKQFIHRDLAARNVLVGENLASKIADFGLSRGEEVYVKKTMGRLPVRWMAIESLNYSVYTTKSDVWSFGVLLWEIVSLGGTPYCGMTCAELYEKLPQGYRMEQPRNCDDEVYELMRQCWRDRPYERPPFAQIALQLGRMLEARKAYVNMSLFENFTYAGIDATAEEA

| Compound | EC50 (TFEB or TFE3) [nM] | KINOMEscan TGFBR2 (TGFBR2) | KINOMEscan MTOR (MTOR) | KINOMEscan MAP3K7 [1] | KINOMEscan PAK4 [2] | KINOMEscan KIT(V559D,T670I) [3] | KINOMEscan TIE1 [4] | KINOMEscan MAP3K3 [5] | KINOMEscan TAOK3 [6] | KINOMEscan PFPK5(P.falciparum) [7] |
| --- | --- | --- | --- | --- | --- | --- | --- | --- | --- | --- |
| Cc1cccc(-c2nc(Nc3ccc4ncsc4c3)c3ccccc3n2)n1 [NK140] | 650 | – | – | – | – | – | – | – | – | – |
| Cc1cccc(-c2nc(Nc3ccc4nn(C)cc4c3)c3ccccc3n2)n1 [NK167] | 1000 | 0 | 0 | 0 | 0 | 13 | 0 | 0 | 4 | 0 |
| Cc1cccc(-c2nc(N(C)c3ccc4ncsc4c3)c3ccccc3n2)n1 [NK-161] | 1100 | 0 | 4 | 10 | 0 | 14 | 0 | 0 | 13 | 0 |
